{"source": "patent US8093231B2", "about": "“Sulfonylethyl phosphorodiamidates” (Telik, Inc., priority 2004, dated 2012)", "test_system": "MX-1, DLD-1 and LNCap cells", "test": "Cytotoxicity/growth inhibition assay, cell line not specified for the statement", "excerpt": "The human cancer cell lines DLD-1 (colorectal adenocarcinoma), LNCap (prostate carcinoma), and OVCAR-3 (ovarian carcinoma) were obtained from the American Type Culture Collection, Manassas, Va., U.S.A., and HL-60 (promyeloid myelocytic leukemia), MX-1 (breast carcinoma), P388, and P388ADR from the National Cancer Institute, Bethesda, Md., U.S.A. Carboplatin, doxorubicin, and melphalan were obtained from Sigma-Aldrich Chemical Company, St. Louis, Mo., U.S.A. The CellTiter-Glo assay kit was obtained from Promega Corporation, Madison, Wis., U.S.A., and the Cellular DNA Cytometric Analysis Reagent Kit from Roche Diagnostics Corporation, Indianapolis, Ind., U.S.A. Lambda DNA was obtained from New England Biolabs, Beverly, Mass., U.S.A., and SYBR-Gold from Molecular Probes, Inc., Eugene, Oreg., U.S.A. The DNeasy Tissue Kit was obtained from Qiagen Inc., Valencia, Calif., U.S.A., and AmpliTaq Gold DNA polymerase and PCR reagents from Applied Biosystems, Foster City, Calif., U.S.A. All products were used in accordance with manufacturer's directions. […] The extent of cell growth was expressed as a percentage of the signal from the solvent control wells.\nLog-phase cells were trypsinized, collected by centrifugation, and resuspended in a small volume of fresh medium, and the density of viable cells was determined following Trypan Blue staining. […]", "data": [{"compound": "O=P(OCCSCCOP(=O)(N(CCCl)CCCl)N(CCCl)CCCl)(N(CCCl)CCCl)N(CCCl)CCCl", "note": "[Compound 1CC, di[2-[[bis[bis(2-chloroethyl)amino]phosphinyl]oxy]ethyl]sulfide]", "values": [{"measurement": "activity in cytotoxicity/growth inhibition assay", "result": "active"}]}]}
